Test results: patent US20230112418A1, “COMPOUND AND RADIOACTIVE LABELING COMPOUND” (NIHON MEDI-PHYSICS CO., LTD., priority 2020, published 2023)

What was measured:
[1] = molecular target: human serum albumin (HSA) (Homo sapiens, UniProt P02768); assay: Evaluation of binding to albumin (spin column), HSA solution and PBS; conditions: FIG. 5
Protocol: Thereafter, the reaction liquid was added to a spin column (Sephadex G-100 manufactured by Cytiva), and centrifuged at 1500×g at 4° C. for two minutes. After the separation, the radioactivity of each of the column and the eluate was measured with a gamma counter.
Data was expressed as mean±standard deviation. A significant difference test was performed using Student's t-test, and a result of p<0.05 was defined to have a significant difference.
The higher a value, the higher binding property to albumin.
Thereafter, the reaction liquid was added to a spin column (Sephadex G-100 manufactured by Cytiva), and centrifuged at 1500×g at 4° C. for two minutes. After the centrifugation, the radioactivity of each of the column and the eluate was measured with a gamma counter.

[2] = system: PC-3 tumor transplanted mice; assay: In vivo radioactivity distribution using PC-3 tumor transplanted mice
Protocol: Animal experiments were performed in accordance with the guidelines of Kyoto University Animal Experiment Committee. Male CB17/IcrJcl-Prkdc^scid mice were purchased from CLEA Japan, Inc. The animals were raised under 12 h/12 h day/night cycle conditions and freely fed with food and water. LNCaP cells (1.0×10^7 cells/mouse) or PC-3 cells (1.0×10^7 cells/mouse) were suspended in a mixed liquid (1:1,150 μL) of PBS and Matrigel manufactured by Corning Life Sciences Inc., and the suspension was subcutaneously transplanted to the right shoulder of each of the mice under isoflurane anesthesia. Thereafter, the mice were raised for 40 to 60 days.
A saline solution (185 kBq, 100 μL) of [^111In]In-PSMA-DA1 or [^111In]In-PSMA-DB was injected into each of LNCaP or PC-3 tumor transplanted mice via the tail vein thereof (n=3 in each group). The mice were euthanized 1, 4, 24, 48, 96, and 192 hours after the injection. Thereafter, blood and organs were collected, and the mass and radioactivity of each of the organs were measured.
A result thereof is indicated as a value (% ID/g) obtained by dividing the percentage (% ID) of the amount of radioactivity with respect to the amount of injected radioactivity (injected dose) by the mass of blood or the mass of an organ (g).

[3] = system: LNCaP tumor transplanted mice; assay: SPECT/CT using LNCaP tumor transplanted mice; format: in vivo; conditions: FIG. 7
Protocol: A saline solution (1.9 to 3.0 MBq, 150 μL) of [^111In]In-PSMA-DA1 or [^111In]In-PSMA-DB was injected into each of the LNCaP tumor transplanted mice generated by the above-described method via the tail vein thereof. SPECT/CT was performed with an FX3300 pre-clinical imaging system manufactured by Gamma Medica-Ideas 24 and 48 hours after the injection. Imaging was performed under isoflurane anesthesia using a pinhole collimator with a diameter of 1.0 mm at a rotation radius of 35 mm, a scan time of 70 seconds, and the number of times of imaging of 32. After SPECT, CT (tube voltage: 60 kV, tube current: 350 μA) was performed. Image reconstruction by a three-dimensional ordered subset expectation maximization method (8 subsets, 5 iterations) was performed on projection data of SPECT.
Results of SPECT/CT are illustrated in FIG. 7. In FIG. 7, a portion indicated by an arrow is a position where the tumor is present, and a portion indicated by a circle is a position where the kidney is present. The higher the SUV, the amount of radioactivity accumulated is large.

human serum albumin (HSA), sequence (P02768 25-609): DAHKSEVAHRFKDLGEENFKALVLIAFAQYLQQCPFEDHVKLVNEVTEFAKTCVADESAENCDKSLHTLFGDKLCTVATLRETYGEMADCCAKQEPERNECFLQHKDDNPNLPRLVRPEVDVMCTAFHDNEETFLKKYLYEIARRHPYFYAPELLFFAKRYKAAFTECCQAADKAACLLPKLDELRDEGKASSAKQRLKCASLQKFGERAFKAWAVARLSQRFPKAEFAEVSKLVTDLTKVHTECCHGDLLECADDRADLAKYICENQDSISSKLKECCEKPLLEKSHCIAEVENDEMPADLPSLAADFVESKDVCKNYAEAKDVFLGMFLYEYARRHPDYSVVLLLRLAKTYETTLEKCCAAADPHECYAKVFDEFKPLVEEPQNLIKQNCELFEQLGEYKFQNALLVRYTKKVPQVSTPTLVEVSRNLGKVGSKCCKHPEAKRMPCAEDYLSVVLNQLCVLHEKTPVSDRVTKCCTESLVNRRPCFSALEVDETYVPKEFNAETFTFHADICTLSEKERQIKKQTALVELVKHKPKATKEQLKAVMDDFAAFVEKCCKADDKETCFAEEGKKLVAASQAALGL

## O=C([O-])CN1CCN(C(CCC(=O)NCCCC[C@H](NC(=O)N[C@@H](CCC(=O)O)C(=O)O)C(=O)O)C(=O)[O-])CCN(CC(=O)[O-])CCN(C(CCC(=O)Nc2ccccc2)C(=O)[O-])CC1.[111In+3] (stereo partly shown) [[^111In]In-PSMA-DB]
[1]
  Radioactivity in the eluate, PBS (in words): no significant radioactivity was observed in the eluate
[2]; 1 hour after injection
  Accumulation: Blood: 1.92 ± 0.27 % ID/g
  Accumulation: Brain: 0.06 ± 0.00 % ID/g
  Accumulation: Heart: 0.49 ± 0.05 % ID/g
  Accumulation: Intestinal: 0.48 ± 0.04 % ID/g
  Accumulation: Kidney: 49.5 ± 12.6 % ID/g
  Accumulation: Liver: 0.62 ± 0.03 % ID/g
  Accumulation: Lung: 1.36 ± 0.23 % ID/g
  Accumulation: Muscle: 0.21 ± 0.08 % ID/g
  Accumulation: PC-3 tumor: 0.61 ± 0.06 % ID/g
  Accumulation: Pancreas: 0.44 ± 0.06 % ID/g
  Accumulation: Spleen: 2.57 ± 0.39 % ID/g
  Accumulation: Stomach: 0.12 ± 0.04 % ID
[2]; same time point
  Accumulation in the PC-3 tumor compared with the LNCaP tumor (in words): lower than accumulation thereof in the LNCaP tumor at the same time point
[3]; 24 and 48 hours after the injection
  SPECT/CT radioactivity accumulation in the LNCaP tumor (in words): radioactivity accumulation was also observed in the LNCaP tumor
[3]
  SPECT/CT kidney versus tumor radioactivity (in words): the accumulation was lower than that in the kidney
